In patent US20230104487A1, “11-(4-CHLOROPHENYL)-4-(2,3-DIHYDRO-1H-INDOLE-1-CARBONYL)-3,11-DIMETHYL-5,10,DIOXATRICYCLO[7.4.0.0,2,6,]TRIDECA-1,3,6,8-TETRAEN-13-ONE AND DERIVATIVES AS DESTABILIZER OF CRY1 FOR THE TREATMENT OF CIRCADIAN RHYTHM ASSOCIATED DISEASES AND DISORDERS” (KOC UNIVERSITESI, priority 2019, published 2023):

Experiments:
C57BL/6J mice = test: Single dose toxicity study in mice; type: in vivo
Procedure: Male and female C57BL/6J mice, 8-12 weeks of age, weighing 18-24 g were used in the in vivo studies with FORMULA I. Mice were obtained from Kog University Animal Research Facility (KUTTAM) and experiments were conducted in accordance with the guidelines approved for animal experimental procedures by the Koc University Animal Research Local Ethics Committee (No: 2015/13).
Mice were housed in polystyrene cages up to four animals in the room equipped with temperature control (21±2° C.) and humidity (55±5%). Mice were housed under 12 h of light (L) in alternation with 12 h of darkness (D) (LD 12:12) prior to any intervention and the same lighting regimen continued to the end of the experiment. Water and food were provided ad libitum throughout the experiments. FORMULA I or vehicle were administered intraperitoneally to mice at the same time every day (three hours after light onset). […]
The dose levels to be used in the single dose toxicity study were selected according to the OECD Guidelines (Guidelines for the testing of chemicals, 2002). […] Body weight was measured every day as an index of general toxicity. […] The body temperatures of the mice were recorded by rectal homeothermic monitor (Harvard Apparatus, US) for 5 days following FORMULA I injection. […] Food intake and water consumption were also monitored for 14 days. […] Hematological parameters were analyzed in blood samples.

CRY2 = target: T1, CRY2 (Homo sapiens, UniProt Q49AN0); test: Protein immunoblot, unsynchronized U2-OS cells, CRY2; type: cell-based; details: Western blot
T1 construct: To evaluate the effect of FORMULA I on the endogenous protein and mRNA level of clock genes; endogenous in cells; host or cells: U2-OS
T1 sequence (Q49AN0 1-593): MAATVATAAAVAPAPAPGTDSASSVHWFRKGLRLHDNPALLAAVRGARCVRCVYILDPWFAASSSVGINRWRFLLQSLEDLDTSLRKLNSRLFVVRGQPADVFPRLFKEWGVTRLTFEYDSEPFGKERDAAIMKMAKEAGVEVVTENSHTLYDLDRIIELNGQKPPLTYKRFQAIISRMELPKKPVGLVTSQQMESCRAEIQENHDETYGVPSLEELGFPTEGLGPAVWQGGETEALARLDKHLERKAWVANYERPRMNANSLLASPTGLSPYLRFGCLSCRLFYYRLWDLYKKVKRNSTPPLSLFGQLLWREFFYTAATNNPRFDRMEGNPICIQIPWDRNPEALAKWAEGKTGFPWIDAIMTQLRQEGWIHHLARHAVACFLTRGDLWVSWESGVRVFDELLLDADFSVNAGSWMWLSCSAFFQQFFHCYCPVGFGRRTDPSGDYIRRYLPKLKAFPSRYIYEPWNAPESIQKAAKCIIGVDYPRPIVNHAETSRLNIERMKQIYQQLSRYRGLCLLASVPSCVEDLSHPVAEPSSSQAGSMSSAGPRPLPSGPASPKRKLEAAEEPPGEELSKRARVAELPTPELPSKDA
Procedure: Cells were lysed in RIPA buffer (50 mM Tris, 150 mM NaCl, 1% Triton-X, 0.1% SDS) with fresh Protease inhibitor cocktail (PIC). After centrifugation at 13000 rpm for 15 minutes at 4° C., supernatant was used to determine the protein amount using Pierce Protein Assay (Thermo Scientific) according to the manufacturer's instruction. Mice liver samples were homogenized and lysed with Dounce homogenizer and RIPA buffer. After homogenization samples were incubated 10 minutes on ice. After centrifugation 13000 rpm 15 minutes at 4° C. supernatant was used for the whole cell lysate. Subcellular fractionation of liver samples: Liver samples were homogenized with cytosolic lysis buffer (10 mM HEPES pH 7.9, 10 mM KCl, 0.1 mM EDTA, 0.05% NP40, proteasome inhibitor) by pipetting 40 times with a cut tip. Then samples were incubated 10 minutes on ice and centrifuged for 3 minutes at 3000 rpm at 4° C. Supernatant was saved in a new tube, and pellet was processed for the nuclear fraction. Supernatant was centrifuged at 13000 rpm for 3 minutes at 4° C. where new supernatant saved as the cytosolic fraction. […] ECL buffer system (Advansta WesternBright) was used to visualize HRP chemi-luminescence via BioRad ChemiDoc Touch visualizer.

Compound: Cc1c(C(=O)N2CCc3ccccc32)oc2ccc3c(c12)C(=O)CC(C)(c1ccc(Cl)cc1)O3 (stereo not drawn) [FORMULA I, 11-(4-chlorophenyl)-4-(2,3-dihydro-1H-indole-1-carbonyl)-3,11-dimethyl-5,10,dioxatricyclo[7.4.0.0,2,6,]trideca-1,3,6,8-tetraen-13-one]
- tolerability (C57BL/6J mice; single doses of 5 and 50 mg/kg): well-tolerated
- toxic effect in pharmacological studies with mice (C57BL/6J mice; summary statement): no toxic effect
- level of CRY2 (CRY2): CRY2 levels were comparable
